Results from ChEMBL document CHEMBL1201862, “PubChem BioAssay data set” (2004).
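All cell lines were grown in 96-well plates and treated with compound for 48 hours. The concentration for 50% growth inhibition is given as GI50.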 Activity calls are given as the source filed them. Cut-off read from the data, not from the text of the source: active = GI50 up to about 1.1 µM and inactive = higher.

Experiments:
Test in all cases: NCI tumour cell line growth inhibition, 48 h
SW-620 = system: SW-620
MCF7 = system: MCF7
HCT-116 = system: HCT-116
SK-MEL-28 = system: SK-MEL-28
SF-268 = system: SF-268
RXF 393 = system: RXF 393
K562 = system: K562
CCRF-CEM = system: CCRF-CEM
T47D = system: T47D
SK-MEL-5 = system: SK-MEL-5
ACHN = system: ACHN
MDA-MB-435 = system: MDA-MB-435
SNB-75 = system: SNB-75
HOP-62 = system: HOP-62
RPMI-8226 = system: RPMI-8226
BT-549 = system: BT-549
CAKI-1 = system: CAKI-1
SK-MEL-2 = system: SK-MEL-2
SNB-19 = system: SNB-19
NCI-H522 = system: NCI-H522
DU-145 = system: DU-145
MOLT-4 = system: MOLT-4
NCI-H460 = system: NCI-H460
OVCAR-5 = system: OVCAR-5
OVCAR-8 = system: OVCAR-8
SF-295 = system: SF-295
Hs-578T = system: Hs-578T
MDA-MB-231 = system: MDA-MB-231
LOX IMVI = system: LOX IMVI
Malme-3M = system: Malme-3M
EKVX = system: EKVX
OVCAR-3 = system: OVCAR-3
SR = system: SR
MDA-N = system: MDA-N
SK-OV-3 = system: SK-OV-3
M14 = system: M14
KM12 = system: KM12
SN12C = system: SN12C
U-251 = system: U-251
HCT-15 = system: HCT-15
786-0 = system: 786-0
PC-3 = system: PC-3
UACC-62 = system: UACC-62
SF-539 = system: SF-539
HL-60 = system: HL-60
UACC-257 = system: UACC-257
A498 = system: A498
UO-31 = system: UO-31
OVCAR-4 = system: OVCAR-4
HT-29 = system: HT-29
TK-10 = system: TK-10
IGROV-1 = system: IGROV-1
COLO 205 = system: COLO 205
NCI-H23 = system: NCI-H23
NCI/ADR-RES = system: NCI/ADR-RES
A549 = system: A549

Measured: GI50

C/C(=N\Nc1nc2ccccc2o1)c1ccc2ccccc2n1
1.08 µM: HCT-15
active: T47D 0.279 µM | CAKI-1 1 µM | EKVX 0.458 µM | OVCAR-3 0.52 µM | SR 0.579 µM | IGROV-1 0.356 µM
inactive: SW-620 4.07 µM | MCF7 6.12 µM | HCT-116 2.55 µM | SK-MEL-28 3.96 µM | SF-268 5.06 µM | RXF 393 18.5 µM | K562 3.67 µM | CCRF-CEM 2.04 µM | SK-MEL-5 3.15 µM | ACHN 1.47 µM | MDA-MB-435 6.35 µM | SNB-75 11.6 µM | HOP-62 4.53 µM | RPMI-8226 2.69 µM | BT-549 20.7 µM | SK-MEL-2 1.73 µM | SNB-19 8.26 µM | NCI-H522 1.94 µM | DU-145 4.41 µM | MOLT-4 1.97 µM | NCI-H460 3.7 µM | OVCAR-5 2.93 µM | OVCAR-8 2.89 µM | SF-295 3.72 µM | Hs-578T 27.4 µM | MDA-MB-231 2.98 µM | LOX IMVI 2.86 µM | Malme-3M 4.21 µM | MDA-N 6.49 µM | SK-OV-3 23.1 µM | M14 2.57 µM | KM12 3.48 µM | SN12C 3.42 µM | U-251 3.21 µM | 786-0 3.68 µM | PC-3 1.83 µM | UACC-62 3.8 µM | SF-539 7.36 µM | HL-60 2.33 µM | UACC-257 6.71 µM | A498 2.55 µM | UO-31 2.09 µM | OVCAR-4 1.3 µM | HT-29 1.89 µM | TK-10 6.92 µM | COLO 205 3.85 µM | NCI-H23 8.75 µM | NCI/ADR-RES 3.22 µM | A549 4.2 µM
